# According to US6355799B1, “Substituted benzene compounds, process for their preparation, and herbicidal and defoliant compositions containing them” (ISK Americas Incorporated, priority 1997, dated 2002):
# Columns and labels:
# Type in all cases: in vivo
# [1] = test system: ivyleaf morningglory (Ipomoea hederacea, IPOHE); assay: Pre-emerge test, greenhouse herbicide activity screening; details: pre-emerge, 14 days after application, scale 0-100
# Outline: (§1)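 Fourteen days after spraying, crop and weed injury was graded visually from 0, no effect, to 100, every plant dead. Test substances were dissolved in acetone and applied at 15–1000 g ai/ha with a flat-fan nozzle. Application was either pre-emergence, one day after sowing, or post-emergence at the 2–3 leaf stage.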
# [2] = test system: lambsquarters (Chenopodium album, CHEAL); assay: as above; details: pre-emerge, 14 days after application, scale 0-100
# Outline: as §1
# [3] = test system: johnsongrass (Sorghum halepense, SORHA); assay: as above; details: pre-emerge, 14 days after application, scale 0-100
# Outline: as §1
# [4] = test system: barnyardgrass (Echinochloa crus-galli, ECHCG); assay: as above; details: pre-emerge, 14 days after application, scale 0-100
# Outline: as §1
# [5] = test system: sicklepod (Cassia obtusifolia, CASOB); assay: as above; details: pre-emerge, 14 days after application, scale 0-100
# Outline: as §1
# [6] = test system: green foxtail (Setaria viridis, SETVI); assay: as above; details: pre-emerge, 14 days after application, scale 0-100
# Outline: as §1
# [7] = test system: velvetleaf (Abutilon theophrasti, ABUTH); assay: as above; details: pre-emerge, 14 days after application, scale 0-100
# Outline: as §1
# [8] = test system: common ragweed (Ambrosia artemisizfolia L., AMBEL); assay: as above; details: pre-emerge, 14 days after application, scale 0-100
# Outline: as §1
# [9] = test system: large crabgrass (Digitaria sanguinalis, DIGSA); assay: as above; details: pre-emerge, 14 days after application, scale 0-100
# Outline: as §1
# [10] = test system: field corn (Zea mays L., var. Dekalb 535, CORN); assay: Pre-emerge test, crop safety; details: pre-emerge, 14 days after application, scale 0-100
# Outline: (§2)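 Rating: 0–100 visual injury, 14 DAA. Application: acetone, 187 l/ha, 15–1000 g ai/ha, flat-fan track sprayer with nozzle 40–45 cm above soil or canopy. Post-emerge runs used 0.25% v/v surfactant on 2–3 leaf plants.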
# [11] = test system: upland rice (Oryza sp., var. Tebonnet, RICE); assay: Pre-emerge test, crop safety; details: pre-emerge, 14 days after application, scale 0-100
# Outline: as §2
# [12] = test system: field corn (Zea mays L., var. Dekalb 535, CORN); assay: Post-emerge test, crop safety; details: post-emerge, 14 days after application, rating scale 0-100
# Outline: as §1
# [13] = test system: upland rice (Oryza sp., var. Tebonnet, RICE); assay: Post-emerge test, crop safety; details: post-emerge, 14 days after application, rating scale 0-100
# Outline: as §1
# [14] = test system: ivyleaf morningglory (Ipomoea hederacea, IPOHE); assay: Post-emerge test, greenhouse herbicide activity screening; details: post-emerge, 14 days after application, rating scale 0-100
# Outline: (§3)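 Visual ratings on a 0-100 scale (0 no damage, 100 all plants dead) were taken at 14 days after treatment. Rates of 15-1000 g ai/ha in acetone, 187 l/ha, were sprayed onto soil one day after planting (pre-emerge) or onto 2-3 leaf plants with 0.25% v/v surfactant (post-emerge).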
# [15] = test system: lambsquarters (Chenopodium album, CHEAL); assay: as above; details: post-emerge, 14 days after application, rating scale 0-100
# Outline: as §3
# [16] = test system: johnsongrass (Sorghum halepense, SORHA); assay: as above; details: post-emerge, 14 days after application, rating scale 0-100
# Outline: as §3
# [17] = test system: barnyardgrass (Echinochloa crus-galli, ECHCG); assay: as above; details: post-emerge, 14 days after application, rating scale 0-100
# Outline: as §3
# [18] = test system: sicklepod (Cassia obtusifolia, CASOB); assay: as above; details: post-emerge, 14 days after application, rating scale 0-100
# Outline: as §3
# [19] = test system: green foxtail (Setaria viridis, SETVI); assay: as above; details: post-emerge, 14 days after application, rating scale 0-100
# Outline: as §3
# [20] = test system: velvetleaf (Abutilon theophrasti, ABUTH); assay: as above; details: post-emerge, 14 days after application, rating scale 0-100
# Outline: as §3
# [21] = test system: redroot pigweed (Amaranthus retroflexus, AMARE); assay: as above; details: post-emerge, 14 days after application, rating scale 0-100
# Outline: as §3
# [22] = test system: large crabgrass (Digitaria sanguinalis, DIGSA); assay: as above; details: post-emerge, 14 days after application, rating scale 0-100
# Outline: as §3
# [23] = test system: redroot pigweed (Amaranthus retroflexus, AMARE); assay: Pre-emerge test, greenhouse herbicide activity screening; details: pre-emerge, 14 days after application, scale 0-100
# Outline: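 Compounds in acetone were track-sprayed at 15-1000 g ai/ha (187 l/ha) on sandy loam pots: pre-emerge one day after seeding, post-emerge at 2-3 leaf stage with 0.25% v/v non-ionic surfactant. Phytotoxicity was rated 14 days later on a 0 (no damage) to 100 (complete death) scale.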
structure (smiles),measurement,setting,value
Cn1c(C(F)(F)F)cc(=O)n(-c2ccc(C(F)(F)F)cc2NC(=O)c2ccc3ccccc3c2)c1=O [2-149],phytotoxicity rating IPOHE,[1]; 63 g ai/ha,30
same,phytotoxicity rating IPOHE,[1]; 250 g ai/ha,70
same,phytotoxicity rating CHEAL,[2]; 63 g ai/ha,100
same,phytotoxicity rating CHEAL,[2]; 250 g ai/ha,100
same,phytotoxicity rating SORHA,[3]; 63 g ai/ha,30
same,phytotoxicity rating SORHA,[3]; 250 g ai/ha,50
same,phytotoxicity rating ECHCG,[4]; 63 g ai/ha,50
same,phytotoxicity rating ECHCG,[4]; 250 g ai/ha,100
same,phytotoxicity rating CASOB,[5]; 63 g ai/ha,0
same,phytotoxicity rating CASOB,[5]; 250 g ai/ha,50
same,phytotoxicity rating SETVI,[6]; 63 g ai/ha,50
same,phytotoxicity rating SETVI,[6]; 250 g ai/ha,90
same,phytotoxicity rating ABUTH,[7]; 63 g ai/ha,99
same,phytotoxicity rating ABUTH,[7]; 250 g ai/ha,100
same,phytotoxicity rating AMBEL,[8]; 63 g ai/ha,0
same,phytotoxicity rating AMBEL,[8]; 250 g ai/ha,100
same,phytotoxicity rating DIGSA,[9]; 63 g ai/ha,90
same,phytotoxicity rating DIGSA,[9]; 250 g ai/ha,100
same,phytotoxicity rating CORN (crop damage),[10]; 63 g ai/ha,0
same,phytotoxicity rating CORN (crop damage),[10]; 250 g ai/ha,20
same,phytotoxicity rating RICE (crop damage),[11]; 63 g ai/ha,0
same,phytotoxicity rating RICE (crop damage),[11]; 250 g ai/ha,50
same,CORN phytotoxicity rating (crop damage),[12]; 63 g ai/ha,0
same,CORN phytotoxicity rating (crop damage),[12]; 250 g ai/ha,15
same,RICE phytotoxicity rating (crop damage),[13]; 63 g ai/ha,0
same,RICE phytotoxicity rating (crop damage),[13]; 250 g ai/ha,10
same,IPOHE phytotoxicity rating,[14]; 63 g ai/ha,70
same,IPOHE phytotoxicity rating,[14]; 250 g ai/ha,95
same,CHEAL phytotoxicity rating,[15]; 63 g ai/ha,90
same,CHEAL phytotoxicity rating,[15]; 250 g ai/ha,95
same,SORHA phytotoxicity rating,[16]; 63 g ai/ha,0
same,SORHA phytotoxicity rating,[16]; 250 g ai/ha,0
same,ECHCG phytotoxicity rating,[17]; 63 g ai/ha,20
same,ECHCG phytotoxicity rating,[17]; 250 g ai/ha,50
same,CASOB phytotoxicity rating,[18]; 63 g ai/ha,95
same,CASOB phytotoxicity rating,[18]; 250 g ai/ha,95
same,SETVI phytotoxicity rating,[19]; 63 g ai/ha,10
same,SETVI phytotoxicity rating,[19]; 250 g ai/ha,20
same,ABUTH phytotoxicity rating,[20]; 63 g ai/ha,100
same,ABUTH phytotoxicity rating,[20]; 250 g ai/ha,100
same,AMARE phytotoxicity rating,[21]; 63 g ai/ha,80
same,AMARE phytotoxicity rating,[21]; 250 g ai/ha,80
same,DIGSA phytotoxicity rating,[22]; 63 g ai/ha,0
same,DIGSA phytotoxicity rating,[22]; 250 g ai/ha,20
same,phytotoxicity rating AMARE,[23]; 63 g ai/ha,100
same,phytotoxicity rating AMARE,[23]; 250 g ai/ha,100
COc1c(Cl)cc(F)c(-n2c(=O)cc(C(F)(F)F)n(C)c2=O)c1NC(=O)c1ccc2c(C#N)cccc2c1 [2-163],phytotoxicity rating IPOHE,[1]; 63 g ai/ha,40
same,phytotoxicity rating IPOHE,[1]; 250 g ai/ha,95
same,phytotoxicity rating CHEAL,[2]; 63 g ai/ha,100
same,phytotoxicity rating CHEAL,[2]; 250 g ai/ha,100
same,phytotoxicity rating SORHA,[3]; 63 g ai/ha,0
same,phytotoxicity rating SORHA,[3]; 250 g ai/ha,30
same,phytotoxicity rating ECHCG,[4]; 63 g ai/ha,0
same,phytotoxicity rating ECHCG,[4]; 250 g ai/ha,75
same,phytotoxicity rating CASOB,[5]; 63 g ai/ha,10
same,phytotoxicity rating CASOB,[5]; 250 g ai/ha,60
same,phytotoxicity rating SETVI,[6]; 63 g ai/ha,60
same,phytotoxicity rating SETVI,[6]; 250 g ai/ha,95
same,phytotoxicity rating ABUTH,[7]; 63 g ai/ha,95
same,phytotoxicity rating ABUTH,[7]; 250 g ai/ha,100
same,phytotoxicity rating AMBEL,[8]; 63 g ai/ha,65
same,phytotoxicity rating AMBEL,[8]; 250 g ai/ha,95
same,phytotoxicity rating DIGSA,[9]; 63 g ai/ha,35
same,phytotoxicity rating DIGSA,[9]; 250 g ai/ha,100
same,phytotoxicity rating CORN (crop damage),[10]; 63 g ai/ha,0
same,phytotoxicity rating CORN (crop damage),[10]; 250 g ai/ha,0
same,phytotoxicity rating RICE (crop damage),[11]; 63 g ai/ha,0
same,phytotoxicity rating RICE (crop damage),[11]; 250 g ai/ha,30
same,CORN phytotoxicity rating (crop damage),[12]; 63 g ai/ha,35
same,CORN phytotoxicity rating (crop damage),[12]; 250 g ai/ha,40
same,RICE phytotoxicity rating (crop damage),[13]; 63 g ai/ha,20
same,RICE phytotoxicity rating (crop damage),[13]; 250 g ai/ha,55
same,IPOHE phytotoxicity rating,[14]; 63 g ai/ha,98
same,IPOHE phytotoxicity rating,[14]; 250 g ai/ha,95
same,CHEAL phytotoxicity rating,[15]; 63 g ai/ha,100
same,CHEAL phytotoxicity rating,[15]; 250 g ai/ha,100
same,SORHA phytotoxicity rating,[16]; 63 g ai/ha,0
same,SORHA phytotoxicity rating,[16]; 250 g ai/ha,10
same,ECHCG phytotoxicity rating,[17]; 63 g ai/ha,55
same,ECHCG phytotoxicity rating,[17]; 250 g ai/ha,70
same,CASOB phytotoxicity rating,[18]; 63 g ai/ha,90
same,CASOB phytotoxicity rating,[18]; 250 g ai/ha,90
same,SETVI phytotoxicity rating,[19]; 63 g ai/ha,50
same,SETVI phytotoxicity rating,[19]; 250 g ai/ha,60
same,ABUTH phytotoxicity rating,[20]; 63 g ai/ha,99
same,ABUTH phytotoxicity rating,[20]; 250 g ai/ha,100
same,AMARE phytotoxicity rating,[21]; 63 g ai/ha,100
same,AMARE phytotoxicity rating,[21]; 250 g ai/ha,100
same,DIGSA phytotoxicity rating,[22]; 63 g ai/ha,30
same,DIGSA phytotoxicity rating,[22]; 250 g ai/ha,45
same,phytotoxicity rating AMARE,[23]; 63 g ai/ha,100
same,phytotoxicity rating AMARE,[23]; 250 g ai/ha,100
